Results as given in patent US7687079B2, “Methods of treating ileus” (priority 2002, dated 2010).

Experiments:
HO-1 mRNA = test: Example 3 HO-1 mRNA by SYBR green real time RT-PCR; type: in vivo, mouse; conditions: IM-CO mice
Experimental: Ileus was induced in mice by gentle manipulation of the small intestine. An incision was made to expose the abdominal cavity of the mouse, and bowel manipulation was performed by gentle poking and prodding of the small intestine (see, e.g., Schwarz et al., Gastroenterology 121(6):1354-1357 (2001)). […] Mice were exposed to CO by inhalation (250 and 500 ppm) for 1 hour immediately prior to intestinal manipulation and during the entire 24-hour recovery period. Intestinal contractility was assessed in vitro by measuring circular muscle strip contractions in response to bethanechol (0.3-300 μM) and in vivo by determining intestinal transit from the distribution of orally-fed, fluorescein-labeled dextran and calculating geometric center as described in Example 1 above. HO-1 and IL-10 mRNA expression were determined by SYBR green real time RT-PCR from extracts of muscularis extemae, as described in Example 1 above. Release of nitric oxide (NO), a potent inhibitor of smooth muscle contractility, was estimated by measuring serum total nitrite, also described in Example 1 above.

serum nitrite/nitrate = serum nitrite/nitrate levels after SITx (Griess reaction); type: in vivo, rat; conditions: SITx + CO vs SITx with air
Experimental: To monitor the stable end-products of NO metabolism, serum […] levels at 1, 4, and 24 hrs were measured using a commercially available test kit (Cayman, Ann Arbor, Mich.) and quantified according to the manufacturer's directions. In this assay system, nitrate is reduced to nitrite using nitrate reductase, and the nitrite concentration of the sample is subsequently measured using the Griess reaction.
FIG. 6 is a set of bar graphs that illustrate the effect of CO on serum IL-6 and nitrate/nitrite concentrations in animals receiving intestinal grafts at one and four hours after reperfusion. […] Serum IL-6 concentrations were determined using a rat enzyme-linked immunoassay (ELISA) kit (R&D, Cambridge, Mass.). The serum nitrite/nitrate levels, the stable end products of NO metabolism, were measured using a commercially available test kit (Cayman, Ann Arbor, Mich.). In this assay system, nitrate is reduced to nitrite using nitrate reductase, and nitrite concentration of the sample was subsequently measured using the Griess reaction. Serum IL-6 and nitrite/nitrate levels in animals subjected SITx and treated with air increased over time.

ICAM-1 mRNA = ICAM-1 mRNA expression in muscularis externae of intestinal grafts (real time RT-PCR); type: in vivo, rat; conditions: SITx recipients treated with CO, 4 hours after reperfusion
Experimental: The effects of inhalation of CO on transplant-induced pro-inflammatory and anti-inflammatory gene expression was assessed in muscularis extracts by RT-PCR. Muscularis extemae was collected from normal intestine and transplanted grafts 4 hours postoperatively and snap frozen in liquid nitrogen. This time point falls within the range of maximum inflammatory mediator expression that occurs between 3 and 6 hours following abdominal incision. Total RNA extraction was performed using the guanidium-thiocyanate phenol-chloroform extraction method as described previously (Eskandari et al., Am. J. Clin. Pathol. 75(3):367-370 (1997)). RNA pellets were resuspended in RNA-secure resuspension solution (Ambion Inc., Austin, Tex.), followed by removal of potentially contaminating DNA by treatment with DNase I (DNA-Free Kit, Ambion Inc., Austin, Tex.). Equal aliquots (5 μg) of total RNA from each sample were quantified by spectrophotometry (wavelength […]) and aliquoted at a concentration of 40 ng/μl. Peak mRNA expression was quantified in duplicate by SYBR Green two-step, real-time RT-PCR. […] Real-time PCR data were plotted as the ΔRn, fluorescence signal versus the cycle number. […] Quantification of mRNA expression was normalized to GAPDH and calculated relative to control using the comparative CT method (Schmittgen et al., J. Biochem. Biophys. Methods 46(1-2):69-8 (2000)). […]

IL-1β mRNA = IL-1β mRNA expression in muscularis externae of intestinal grafts; type: in vivo, rat
Experimental: To investigate the sequential analysis of cytokine mRNA expression in the mucosa and muscularis, RNase protection assay was performed with the Riboquant™ kit (Pharmingen) according to the protocol of the manufacturer. […] Quantification of radioactivity of mRNA bands was performed with NIH Image, normalized to GAPDH, and expressed as a ratio of cytokine /GAPDH (n=3-4).
The effects of inhalation of CO on transplant-induced pro-inflammatory and anti-inflammatory gene expression was assessed in muscularis extracts by RT-PCR. […] Equal aliquots (5 μg) of total RNA from each sample were quantified by spectrophotometry (wavelength […]) and aliquoted at a concentration of 40 ng/μl. Peak mRNA expression was quantified in duplicate by SYBR Green two-step, real-time RT-PCR. […] Real-time PCR data were plotted as the ΔRn, fluorescence signal versus the cycle number. […] Quantification of mRNA expression was normalized to GAPDH and calculated relative to control using the comparative CT method (Schmittgen et al., J. Biochem. Biophys. Methods 46(1-2):69-8 (2000)). […]

`[C-]#[O+]` [CO, carbon monoxide] was tested, and the “HO-1 expression versus controls” value (HO-1 mRNA) was 150 fold, the “HO-1 increase in expression over IM alone” value (HO-1 mRNA; early induction) was 300% and the serum nitrite/nitrate level (serum nitrite/nitrate) was “significantly decreased”. For the same molecule, the ICAM-1 expression (ICAM-1 mRNA) was “unchanged”, the “IL-1β mRNA” value (IL-1β mRNA; SITx + CO, Table 2) was 6.6 + 0.1 % GAPDH and the “reduction of mean relative IL-1β mRNA expression” value (IL-1β mRNA; SITx recipients treated with CO vs SITx, 4 hours after reperfusion, p=0.046) was 50%.
